# Reference: patent US20110218103A1, “Fluoroalkyl-substituted 2-amidobenzimidazoles” (BAYER CROPSCIENCE AG, priority 2010, published 2011)
# What was measured:
# Hordeum vulgare (HORVS) = experiment: Drought stress test on crop plants, spray application in greenhouse, visual damage rating; type: in vivo; conditions: 25 g/ha, mean of three results
# Protocol: Seeds of monocotyledonous and dicotyledonous crop plants were placed in sandy loam in wood-fiber pots, covered with soil and cultivated in a greenhouse under good growth conditions. The test plants were treated at the early leaf stage (BBCH10-BBCH13). To ensure uniform water supply before commencement of stress, the potted plants were supplied with the maximum amount of water immediately beforehand by dam irrigation and, after application, transferred in plastic inserts in order to prevent subsequent, excessively rapid drying. The inventive compounds, formulated in the form of wettable powders (WP), wettable granules (WG), suspension concentrates (SC) or emulsion concentrates (EC), were sprayed onto the green parts of the plants as an aqueous suspension at an equivalent water application rate of 600 l/ha with addition of 0.2% wetting agent (agrotin). Substance application was followed immediately by stress treatment of the plants (cold or drought stress). For cold stress treatment, the plants were kept under the following controlled conditions: Drought stress was induced by gradual drying out under the following conditions: “day”: 14 hours with illumination at 26° C. “night”: 10 hours without illumination at 18° C. The duration of the respective stress phases was guided mainly by the state of the untreated, stressed control plants and thus varies from crop to crop. It was ended (by re-irrigating or transfer to a greenhouse with good growth conditions) as soon as irreversible damage is observed on the untreated, stressed control plants. In the case of dicotyledonous crops, for example oilseed rape and soya, the duration of the drought stress phase was between 3 and 5 days, in the case of monocotyledonous crops, for example wheat, barley or corn, between 6 and 10 days. The duration of the cold stress phase varied between 12 and 14 days. The end of the stress phase was followed by an approx. 5-7-day recovery phase, during which the plants were once again kept under good growth conditions in a greenhouse. In order to rule out any influence of the effects observed by any fungicidal action of the test compounds, it was additionally ensured that the tests proceed without fungal infection and without infection pressure. After the recovery phase had ended, the intensities of damage were rated visually compared to untreated, unstressed controls of the same age (in the case of drought stress) or the same growth stage (in the case of cold stress). The intensity of damage was first assessed as a percentage (100%=plants have died, 0%=like control plants). These values were then used to calculate the efficacy of the test compounds (=percentage reduction in the intensity of damage as a result of substance application) by the following formula: [formula] EF: efficacy (%) DVus: damage value of the untreated, stressed control DVts: damage value of the plants treated with test compound The tables below list mean values in each case from three results of the same test. Effects of selected compounds of the formula (I) under drought stress: HORVS=Hordeum vulgare
# Brassica napus (BRSNS) = experiment: as above; type: in vivo; conditions: mean of three results
# Protocol: Seeds of monocotyledonous and dicotyledonous crop plants were placed in sandy loam in wood-fiber pots, covered with soil and cultivated in a greenhouse under good growth conditions. The test plants were treated at the early leaf stage (BBCH10-BBCH13). To ensure uniform water supply before commencement of stress, the potted plants were supplied with the maximum amount of water immediately beforehand by dam irrigation and, after application, transferred in plastic inserts in order to prevent subsequent, excessively rapid drying. The inventive compounds, formulated in the form of wettable powders (WP), wettable granules (WG), suspension concentrates (SC) or emulsion concentrates (EC), were sprayed onto the green parts of the plants as an aqueous suspension at an equivalent water application rate of 600 l/ha with addition of 0.2% wetting agent (agrotin). Substance application was followed immediately by stress treatment of the plants (cold or drought stress). For cold stress treatment, the plants were kept under the following controlled conditions: Drought stress was induced by gradual drying out under the following conditions: “day”: 14 hours with illumination at 26° C. “night”: 10 hours without illumination at 18° C. The duration of the respective stress phases was guided mainly by the state of the untreated, stressed control plants and thus varies from crop to crop. It was ended (by re-irrigating or transfer to a greenhouse with good growth conditions) as soon as irreversible damage is observed on the untreated, stressed control plants. In the case of dicotyledonous crops, for example oilseed rape and soya, the duration of the drought stress phase was between 3 and 5 days, in the case of monocotyledonous crops, for example wheat, barley or corn, between 6 and 10 days. The duration of the cold stress phase varied between 12 and 14 days. The end of the stress phase was followed by an approx. 5-7-day recovery phase, during which the plants were once again kept under good growth conditions in a greenhouse. In order to rule out any influence of the effects observed by any fungicidal action of the test compounds, it was additionally ensured that the tests proceed without fungal infection and without infection pressure. After the recovery phase had ended, the intensities of damage were rated visually compared to untreated, unstressed controls of the same age (in the case of drought stress) or the same growth stage (in the case of cold stress). The intensity of damage was first assessed as a percentage (100%=plants have died, 0%=like control plants). These values were then used to calculate the efficacy of the test compounds (=percentage reduction in the intensity of damage as a result of substance application) by the following formula: [formula] EF: efficacy (%) DVus: damage value of the untreated, stressed control DVts: damage value of the plants treated with test compound The tables below list mean values in each case from three results of the same test. Effects of selected compounds of the formula (I) under drought stress: BRSNS=Brassica napus
SMILES,"EF (HORVS), efficacy = percentage reduction in the intensity of damage (Hordeum vulgare (HORVS))","EF (BRSNS), efficacy = percentage reduction in the intensity of damage (Brassica napus (BRSNS); 25 g/ha)","EF (BRSNS), efficacy = percentage reduction in the intensity of damage (Brassica napus (BRSNS); 50 g/ha)"
"NC(=O)c1cccc2[nH]c(C(F)(F)C(F)(F)F)nc12 [1-2, 2-(pentafluoroethyl)-1H-benzimidazole-4-carboxamide]",>5%,>5%,
NC(=O)c1cccc2[nH]c(C(F)(F)C(F)(F)C(F)(F)F)nc12 [1-17],>5%,,>5%
